Measurements taken from ChEMBL document CHEMBL3991601, “The target landscape of clinical kinase drugs” (Science, 2017).
pKd: −log10 of the molar value. Counter-ions that a name gives are not always drawn. Active and inactive are the calls of the source.

Assays:
[1] = biological target: Serine/threonine-protein kinase MRCK alpha (Homo sapiens, UniProt Q5VT25)
[2] = biological target: Casein kinase I isoform delta (Homo sapiens, UniProt P48730)
[3] = biological target: T1, Inhibitor of nuclear factor kappa-B kinase subunit epsilon (Homo sapiens, UniProt Q14164)
T1 sequence (Q14164 whole entry): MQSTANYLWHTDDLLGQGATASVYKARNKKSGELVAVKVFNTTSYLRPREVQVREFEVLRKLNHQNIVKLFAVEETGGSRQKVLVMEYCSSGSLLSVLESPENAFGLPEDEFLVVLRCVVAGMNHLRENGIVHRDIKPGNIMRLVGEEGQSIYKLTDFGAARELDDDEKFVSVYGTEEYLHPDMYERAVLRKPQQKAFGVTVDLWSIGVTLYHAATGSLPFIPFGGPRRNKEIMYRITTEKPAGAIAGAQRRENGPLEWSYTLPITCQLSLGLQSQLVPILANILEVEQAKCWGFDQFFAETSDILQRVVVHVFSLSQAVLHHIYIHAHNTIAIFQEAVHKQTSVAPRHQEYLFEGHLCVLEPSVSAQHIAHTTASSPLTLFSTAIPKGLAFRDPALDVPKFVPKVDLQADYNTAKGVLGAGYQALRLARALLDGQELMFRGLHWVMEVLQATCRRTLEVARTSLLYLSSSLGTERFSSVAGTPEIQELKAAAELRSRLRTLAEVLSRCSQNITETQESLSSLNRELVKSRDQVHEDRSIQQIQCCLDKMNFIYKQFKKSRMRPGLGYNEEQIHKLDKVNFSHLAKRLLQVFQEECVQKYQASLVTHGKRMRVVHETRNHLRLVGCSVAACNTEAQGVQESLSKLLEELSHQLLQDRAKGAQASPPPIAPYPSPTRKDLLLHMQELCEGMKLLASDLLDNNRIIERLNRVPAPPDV

Scaffold protein ILK = biological target: T2, Scaffold protein ILK (Homo sapiens, UniProt Q13418)
T2 sequence (Q13418 whole entry): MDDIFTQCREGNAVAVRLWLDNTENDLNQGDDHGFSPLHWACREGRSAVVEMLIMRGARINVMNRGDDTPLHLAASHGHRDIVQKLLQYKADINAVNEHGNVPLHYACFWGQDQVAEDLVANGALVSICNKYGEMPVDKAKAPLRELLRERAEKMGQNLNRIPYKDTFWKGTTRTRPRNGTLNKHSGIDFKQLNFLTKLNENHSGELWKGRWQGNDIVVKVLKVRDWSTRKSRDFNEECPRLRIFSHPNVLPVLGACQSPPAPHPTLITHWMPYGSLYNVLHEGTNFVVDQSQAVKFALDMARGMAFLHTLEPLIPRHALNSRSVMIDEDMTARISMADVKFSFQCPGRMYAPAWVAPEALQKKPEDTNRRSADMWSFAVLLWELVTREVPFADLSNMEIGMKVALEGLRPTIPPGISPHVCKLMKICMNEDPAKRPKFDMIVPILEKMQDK

[4] = biological target: Tyrosine-protein kinase JAK1 (Homo sapiens, UniProt P23458)
Tyrosine-protein kinase JAK1, sequence (P23458 whole entry): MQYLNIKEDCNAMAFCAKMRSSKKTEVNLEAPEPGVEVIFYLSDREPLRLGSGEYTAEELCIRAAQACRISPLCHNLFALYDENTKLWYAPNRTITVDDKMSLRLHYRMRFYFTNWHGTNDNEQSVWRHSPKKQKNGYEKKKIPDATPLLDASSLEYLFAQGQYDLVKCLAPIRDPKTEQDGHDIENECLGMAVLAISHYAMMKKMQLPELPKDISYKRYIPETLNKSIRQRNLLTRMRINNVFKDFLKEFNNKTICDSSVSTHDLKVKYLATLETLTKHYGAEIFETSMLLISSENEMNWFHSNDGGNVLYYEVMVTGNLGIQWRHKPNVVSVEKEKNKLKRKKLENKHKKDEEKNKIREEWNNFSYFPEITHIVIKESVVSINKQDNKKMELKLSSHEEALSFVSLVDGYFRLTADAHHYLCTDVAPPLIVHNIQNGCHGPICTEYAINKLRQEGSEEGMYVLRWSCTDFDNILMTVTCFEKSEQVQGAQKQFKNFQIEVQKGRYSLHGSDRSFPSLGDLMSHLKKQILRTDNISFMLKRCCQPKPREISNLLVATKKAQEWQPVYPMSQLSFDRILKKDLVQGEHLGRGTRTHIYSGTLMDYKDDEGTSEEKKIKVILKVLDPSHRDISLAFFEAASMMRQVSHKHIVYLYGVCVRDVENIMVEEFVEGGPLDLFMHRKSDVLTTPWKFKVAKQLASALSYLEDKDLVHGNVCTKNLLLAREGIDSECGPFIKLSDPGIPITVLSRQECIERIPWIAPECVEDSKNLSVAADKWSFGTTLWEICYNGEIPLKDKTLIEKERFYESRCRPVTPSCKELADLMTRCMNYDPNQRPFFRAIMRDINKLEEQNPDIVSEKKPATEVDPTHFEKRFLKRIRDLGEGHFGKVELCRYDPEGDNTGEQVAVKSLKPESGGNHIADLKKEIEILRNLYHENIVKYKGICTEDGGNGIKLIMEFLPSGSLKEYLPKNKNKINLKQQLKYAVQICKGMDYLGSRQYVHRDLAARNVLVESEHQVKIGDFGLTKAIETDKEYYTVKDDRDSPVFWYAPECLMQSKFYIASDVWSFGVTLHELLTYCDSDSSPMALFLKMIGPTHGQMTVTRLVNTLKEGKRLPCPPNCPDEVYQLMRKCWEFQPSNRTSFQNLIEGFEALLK

[5] = biological target: T3, DNA replication licensing factor MCM4 (Homo sapiens, UniProt P33991)
T3 sequence (P33991 whole entry): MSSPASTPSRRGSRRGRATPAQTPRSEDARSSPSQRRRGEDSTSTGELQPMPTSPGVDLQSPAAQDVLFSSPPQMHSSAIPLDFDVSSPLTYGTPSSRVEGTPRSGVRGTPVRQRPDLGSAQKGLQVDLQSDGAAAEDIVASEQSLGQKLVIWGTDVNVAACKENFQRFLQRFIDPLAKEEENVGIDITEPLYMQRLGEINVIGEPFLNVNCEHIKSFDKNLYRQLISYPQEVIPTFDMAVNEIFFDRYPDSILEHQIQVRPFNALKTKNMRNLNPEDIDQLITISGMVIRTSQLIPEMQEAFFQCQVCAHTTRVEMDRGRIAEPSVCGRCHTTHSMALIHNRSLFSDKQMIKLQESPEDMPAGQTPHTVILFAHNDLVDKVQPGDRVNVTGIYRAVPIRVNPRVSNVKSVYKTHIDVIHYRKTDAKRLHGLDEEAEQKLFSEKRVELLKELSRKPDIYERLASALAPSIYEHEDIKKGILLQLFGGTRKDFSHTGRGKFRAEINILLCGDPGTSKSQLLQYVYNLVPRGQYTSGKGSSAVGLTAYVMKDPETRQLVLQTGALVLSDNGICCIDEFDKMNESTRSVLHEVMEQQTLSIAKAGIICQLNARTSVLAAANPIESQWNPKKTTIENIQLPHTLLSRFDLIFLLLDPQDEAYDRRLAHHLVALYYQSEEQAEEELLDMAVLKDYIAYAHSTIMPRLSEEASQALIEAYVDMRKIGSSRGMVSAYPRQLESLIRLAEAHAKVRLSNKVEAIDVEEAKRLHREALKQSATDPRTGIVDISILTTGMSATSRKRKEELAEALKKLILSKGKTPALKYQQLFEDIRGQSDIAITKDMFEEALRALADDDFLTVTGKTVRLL

[6] = biological target: Protein kinase C beta type (Homo sapiens, UniProt P05771)
Protein kinase C beta type, sequence (P05771 whole entry): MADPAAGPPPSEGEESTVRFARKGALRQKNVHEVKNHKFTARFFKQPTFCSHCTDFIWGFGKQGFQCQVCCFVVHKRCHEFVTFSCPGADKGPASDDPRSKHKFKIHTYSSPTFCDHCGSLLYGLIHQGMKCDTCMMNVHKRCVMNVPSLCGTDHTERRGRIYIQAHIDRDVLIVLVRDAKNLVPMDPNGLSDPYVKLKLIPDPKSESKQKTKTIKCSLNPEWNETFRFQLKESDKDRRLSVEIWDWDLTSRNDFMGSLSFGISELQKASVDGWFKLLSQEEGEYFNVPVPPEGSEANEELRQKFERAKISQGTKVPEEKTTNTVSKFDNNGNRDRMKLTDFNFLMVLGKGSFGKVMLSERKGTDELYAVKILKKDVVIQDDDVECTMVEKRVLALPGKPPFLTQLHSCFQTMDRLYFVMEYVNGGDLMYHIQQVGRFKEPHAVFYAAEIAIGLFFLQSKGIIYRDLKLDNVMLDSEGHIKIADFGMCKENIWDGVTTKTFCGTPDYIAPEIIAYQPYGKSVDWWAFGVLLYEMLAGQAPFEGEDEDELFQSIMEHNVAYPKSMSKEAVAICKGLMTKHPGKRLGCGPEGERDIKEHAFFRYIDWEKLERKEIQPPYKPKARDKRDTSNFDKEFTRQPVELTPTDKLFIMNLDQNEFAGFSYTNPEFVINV

[7] = biological target: 26S proteasome regulatory subunit 6B (Homo sapiens, UniProt P43686)
26S proteasome regulatory subunit 6B, sequence (P43686 whole entry): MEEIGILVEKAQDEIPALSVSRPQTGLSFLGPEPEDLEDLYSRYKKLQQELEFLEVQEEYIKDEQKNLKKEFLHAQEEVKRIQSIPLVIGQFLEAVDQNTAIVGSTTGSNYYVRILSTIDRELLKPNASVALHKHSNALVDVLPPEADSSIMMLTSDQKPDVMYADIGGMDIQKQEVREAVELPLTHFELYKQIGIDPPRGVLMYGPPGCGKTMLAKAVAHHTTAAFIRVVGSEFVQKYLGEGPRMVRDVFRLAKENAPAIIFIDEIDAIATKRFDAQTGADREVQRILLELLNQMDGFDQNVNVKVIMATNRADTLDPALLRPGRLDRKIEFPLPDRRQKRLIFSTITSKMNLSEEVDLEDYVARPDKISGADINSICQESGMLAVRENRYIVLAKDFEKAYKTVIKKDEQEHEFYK

[8] = biological target: Serine/threonine-protein kinase 10 (Homo sapiens, UniProt O94804)
Serine/threonine-protein kinase 10, sequence (O94804 whole entry): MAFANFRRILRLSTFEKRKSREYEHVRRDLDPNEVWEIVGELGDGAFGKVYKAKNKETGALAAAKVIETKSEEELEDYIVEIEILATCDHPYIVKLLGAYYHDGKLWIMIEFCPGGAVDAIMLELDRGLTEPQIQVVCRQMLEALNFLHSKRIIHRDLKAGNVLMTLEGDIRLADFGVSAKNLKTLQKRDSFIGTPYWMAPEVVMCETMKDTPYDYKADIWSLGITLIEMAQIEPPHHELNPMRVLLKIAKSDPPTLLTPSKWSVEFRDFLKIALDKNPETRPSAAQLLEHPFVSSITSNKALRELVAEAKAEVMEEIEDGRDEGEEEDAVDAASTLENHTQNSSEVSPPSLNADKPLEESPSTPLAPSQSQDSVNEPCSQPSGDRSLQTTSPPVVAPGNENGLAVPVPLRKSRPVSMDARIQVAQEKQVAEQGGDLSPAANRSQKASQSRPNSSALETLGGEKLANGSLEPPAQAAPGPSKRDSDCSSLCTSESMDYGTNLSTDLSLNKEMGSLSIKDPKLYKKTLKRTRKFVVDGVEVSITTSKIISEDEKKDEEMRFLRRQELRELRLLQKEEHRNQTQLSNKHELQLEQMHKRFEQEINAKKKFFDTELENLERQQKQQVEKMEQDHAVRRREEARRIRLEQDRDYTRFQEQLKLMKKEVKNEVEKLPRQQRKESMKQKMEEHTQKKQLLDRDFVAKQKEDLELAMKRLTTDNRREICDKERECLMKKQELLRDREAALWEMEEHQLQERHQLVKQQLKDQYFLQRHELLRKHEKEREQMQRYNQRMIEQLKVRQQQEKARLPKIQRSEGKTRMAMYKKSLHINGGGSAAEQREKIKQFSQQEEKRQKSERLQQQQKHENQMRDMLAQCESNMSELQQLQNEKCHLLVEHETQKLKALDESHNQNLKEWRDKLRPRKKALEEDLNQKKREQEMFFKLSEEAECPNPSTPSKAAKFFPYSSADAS

[9] = biological target: T4, EKC/KEOPS complex subunit TP53RK (Homo sapiens, UniProt Q96S44)
T4 sequence (Q96S44 whole entry): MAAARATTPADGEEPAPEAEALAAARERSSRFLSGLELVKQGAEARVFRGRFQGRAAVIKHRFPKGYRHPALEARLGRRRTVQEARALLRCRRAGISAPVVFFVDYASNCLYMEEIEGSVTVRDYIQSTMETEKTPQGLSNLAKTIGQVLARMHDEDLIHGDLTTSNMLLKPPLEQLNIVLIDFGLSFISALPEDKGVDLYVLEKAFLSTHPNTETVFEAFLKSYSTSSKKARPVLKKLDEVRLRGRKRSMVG

Actin-related protein 2 = Actin-related protein 2 (Homo sapiens, UniProt P61160)
[10] = biological target: cAMP-dependent protein kinase type II-alpha regulatory subunit (Homo sapiens, UniProt P13861)
Note: in the data inactive means no Kd found up to 30 µM.

Serine/threonine-protein kinase MRCK alpha, sequence (Q5VT25 whole entry, canonical isoform): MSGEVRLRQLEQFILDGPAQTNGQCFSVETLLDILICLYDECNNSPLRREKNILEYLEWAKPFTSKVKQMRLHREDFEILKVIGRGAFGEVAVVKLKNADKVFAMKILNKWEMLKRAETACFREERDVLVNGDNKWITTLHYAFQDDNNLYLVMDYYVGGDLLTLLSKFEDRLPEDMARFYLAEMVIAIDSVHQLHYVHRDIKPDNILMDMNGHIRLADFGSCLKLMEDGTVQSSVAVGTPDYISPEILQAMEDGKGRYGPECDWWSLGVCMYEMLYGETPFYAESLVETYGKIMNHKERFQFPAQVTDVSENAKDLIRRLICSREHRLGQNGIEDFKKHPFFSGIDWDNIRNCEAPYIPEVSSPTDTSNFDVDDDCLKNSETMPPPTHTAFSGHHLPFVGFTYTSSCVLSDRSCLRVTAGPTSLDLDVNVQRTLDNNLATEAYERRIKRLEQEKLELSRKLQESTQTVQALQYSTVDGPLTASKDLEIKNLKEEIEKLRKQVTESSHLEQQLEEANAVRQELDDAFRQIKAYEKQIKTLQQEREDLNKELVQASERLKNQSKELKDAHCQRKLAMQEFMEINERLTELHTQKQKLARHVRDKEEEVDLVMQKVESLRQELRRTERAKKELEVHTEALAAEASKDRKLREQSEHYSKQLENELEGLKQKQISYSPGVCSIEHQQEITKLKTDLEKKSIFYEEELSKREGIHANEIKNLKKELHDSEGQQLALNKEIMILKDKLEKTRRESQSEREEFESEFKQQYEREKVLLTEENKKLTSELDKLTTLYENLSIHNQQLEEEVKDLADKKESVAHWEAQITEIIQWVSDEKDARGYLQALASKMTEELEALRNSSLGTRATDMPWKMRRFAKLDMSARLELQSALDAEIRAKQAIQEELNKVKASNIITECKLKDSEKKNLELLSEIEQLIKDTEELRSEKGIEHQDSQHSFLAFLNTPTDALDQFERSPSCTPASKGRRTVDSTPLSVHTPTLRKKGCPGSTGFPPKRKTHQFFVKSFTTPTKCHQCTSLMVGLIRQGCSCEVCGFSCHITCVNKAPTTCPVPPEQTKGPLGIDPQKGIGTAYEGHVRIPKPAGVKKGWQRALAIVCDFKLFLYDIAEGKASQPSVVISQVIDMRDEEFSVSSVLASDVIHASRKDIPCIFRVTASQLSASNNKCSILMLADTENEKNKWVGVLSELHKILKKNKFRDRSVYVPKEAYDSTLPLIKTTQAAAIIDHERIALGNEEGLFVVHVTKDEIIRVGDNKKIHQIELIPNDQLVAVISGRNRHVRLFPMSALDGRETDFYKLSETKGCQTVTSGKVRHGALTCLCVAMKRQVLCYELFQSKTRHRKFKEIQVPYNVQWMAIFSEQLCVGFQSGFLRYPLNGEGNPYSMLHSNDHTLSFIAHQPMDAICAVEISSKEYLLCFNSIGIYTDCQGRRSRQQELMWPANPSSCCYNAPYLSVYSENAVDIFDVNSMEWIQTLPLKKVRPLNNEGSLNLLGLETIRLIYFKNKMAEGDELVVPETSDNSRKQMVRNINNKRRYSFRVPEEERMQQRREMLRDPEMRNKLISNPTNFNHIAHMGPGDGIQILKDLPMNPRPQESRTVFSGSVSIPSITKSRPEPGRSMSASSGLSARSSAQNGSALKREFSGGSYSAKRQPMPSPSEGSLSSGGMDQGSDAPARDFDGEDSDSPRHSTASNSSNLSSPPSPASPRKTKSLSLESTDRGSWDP

Row | Kd [1] | Kd [2] | Kd [3] | Kd [4] | Kd [5] | Kd [6] | Kd [7] | Kd [8] | Kd [9] | Kd (Actin-related protein 2) | Kd [10] | pKd [7] | SMILES | Kd (Scaffold protein ILK)
1 | > 30 µM (inactive) | > 30 µM (inactive) | > 30 µM (inactive) | > 30 µM (inactive) | > 30 µM (inactive) | > 30 µM (inactive) | > 30 µM (inactive) | > 30 µM (inactive) | > 30 µM (inactive) |  |  |  | C[C@@H](Oc1cc(C(=O)Nc2ccc(C(=O)N3CCN(C)CC3)cc2)nnc1N)c1c(Cl)ccc(F)c1Cl | > 30 µM (inactive)
2 |  | > 30 µM (inactive) | > 30 µM (inactive) | > 30 µM (inactive) | > 30 µM (inactive) | > 30 µM (inactive) | > 30 µM (inactive) | > 30 µM (inactive) | > 30 µM (inactive) | > 30 µM (inactive) | > 30 µM (inactive) |  | C[C@H]1CNCCCN1S(=O)(=O)c1cccc2cncc(F)c12 | > 30 µM (inactive)
3 | > 30 µM (inactive) | 0.152 µM (active) | > 30 µM (inactive) | > 30 µM (inactive) | > 30 µM (inactive) | > 30 µM (inactive) | > 30 µM (inactive) |  | > 30 µM (inactive) | > 30 µM (inactive) | > 30 µM (inactive) |  | Cc1nc2cc(-c3nn(C(C)C)c4ncnc(N)c34)ccc2o1 | > 30 µM (inactive)
4 | > 30 µM (inactive) | > 30 µM (inactive) | > 30 µM (inactive) | > 30 µM (inactive) | > 30 µM (inactive) | > 30 µM (inactive) | > 30 µM (inactive) | > 30 µM (inactive) | > 30 µM (inactive) | > 30 µM (inactive) | > 30 µM (inactive) |  | Cc1nc(NC(=O)N2CCC[C@H]2C(N)=O)sc1-c1ccnc(C(C)(C)C(F)(F)F)c1 [ALPELISIB] | 
5 | > 30 µM (inactive) | > 30 µM (inactive) | > 30 µM (inactive) | > 30 µM (inactive) | > 30 µM (inactive) | > 30 µM (inactive) | > 30 µM (inactive) | > 30 µM (inactive) | > 30 µM (inactive) | > 30 µM (inactive) | > 30 µM (inactive) |  | Cc1csc(-c2nnc(Nc3ccc(Oc4ncccc4-c4ccnc(N)n4)cc3)c3ccccc23)c1 [AMG-900] | 
6 | > 30 µM (inactive) | > 30 µM (inactive) | 1.29 µM (active) | 0.078 µM (active) | > 30 µM (inactive) | > 30 µM (inactive) | > 30 µM (inactive) | > 30 µM (inactive) | > 30 µM (inactive) |  | > 30 µM (inactive) |  | CCS(=O)(=O)N1CCN(c2ccc(Nc3ncc(C(N)=O)c(NC4CC4)n3)cc2)CC1 [Cerdulatinib Hydrochloride] | > 30 µM (inactive)
7 | > 30 µM (inactive) | > 30 µM (inactive) | 0.658 µM (active) | > 30 µM (inactive) | > 30 µM (inactive) | 5.89 µM (active) | > 30 µM (inactive) | > 30 µM (inactive) | > 30 µM (inactive) | > 30 µM (inactive) | > 30 µM (inactive) |  | Cc1nc(Nc2n[nH]c3c2CN(C(=O)N[C@H](CN(C)C)c2ccccc2)C3(C)C)c2sccc2n1 [PF-03758309] | 
8 | > 30 µM (inactive) | > 30 µM (inactive) | > 30 µM (inactive) | > 30 µM (inactive) | > 30 µM (inactive) | > 30 µM (inactive) |  | 4.39 µM (active) | > 30 µM (inactive) | > 30 µM (inactive) | > 30 µM (inactive) | 8.30 | Cn1cc(-c2cnn3c(N)c(Br)c([C@@H]4CCCNC4)nc23)cn1 [SCH-900776] | 
9 | > 30 µM (inactive) | > 30 µM (inactive) | > 30 µM (inactive) | > 30 µM (inactive) |  |  | > 30 µM (inactive) | > 30 µM (inactive) | > 30 µM (inactive) |  | > 30 µM (inactive) |  | Cn1ncc(Cl)c1-c1cc(C(=O)N[C@H](CN)Cc2ccc(F)c(F)c2)oc1Cl [UPROSERTIB] | > 30 µM (inactive)

Row | SMILES | Kd [1] | Kd [2] | Kd [3] | Kd [4] | Kd [5] | Kd [6] | Kd [7] | Kd [8] | Kd [9] | Kd (Actin-related protein 2) | Kd [10] | pKd [7] | Kd (Scaffold protein ILK)
10 | CC(C)(C)c1nc(-c2cccc(NS(=O)(=O)c3c(F)cccc3F)c2F)c(-c2ccnc(N)n2)s1 [DABRAFENIB] | > 30 µM (inactive) | > 30 µM (inactive) | > 30 µM (inactive) | > 30 µM (inactive) | > 30 µM (inactive) | > 30 µM (inactive) | > 30 µM (inactive) |  | > 30 µM (inactive) | > 30 µM (inactive) | > 30 µM (inactive) |  | > 30 µM (inactive)
11 | O=C(Nc1nc2cccc(-c3ccc(CN4CCS(=O)(=O)CC4)cc3)n2n1)C1CC1 [FILGOTINIB] | > 30 µM (inactive) | > 30 µM (inactive) | > 30 µM (inactive) |  | > 30 µM (inactive) | > 30 µM (inactive) | > 30 µM (inactive) | 1.91 µM (active) | > 30 µM (inactive) | > 30 µM (inactive) | > 30 µM (inactive) |  | > 30 µM (inactive)
12 | O=C(Nc1cc(C(F)(F)F)cc(C(F)(F)F)c1)c1cc(Cl)ccc1O [IMD-0354] |  | > 30 µM (inactive) | > 30 µM (inactive) | > 30 µM (inactive) | > 30 µM (inactive) | > 30 µM (inactive) | > 30 µM (inactive) | > 30 µM (inactive) | > 30 µM (inactive) | > 30 µM (inactive) | > 30 µM (inactive) |  | > 30 µM (inactive)
13 | CCOc1cc2ncc(C#N)c(Nc3ccc(F)c(Cl)c3)c2cc1NC(=O)/C=C/CN(C)C [PELITINIB] | > 30 µM (inactive) | 3.88 µM (active) | > 30 µM (inactive) | > 30 µM (inactive) | > 30 µM (inactive) | > 30 µM (inactive) | > 30 µM (inactive) |  | > 30 µM (inactive) | > 30 µM (inactive) | > 30 µM (inactive) |  | > 30 µM (inactive)
14 | CNC(=O)c1cc(Oc2ccc(NC(=O)Nc3cc(C(C)(C)C)nn3-c3ccc4ncccc4c3)c(F)c2)ccn1 [REBASTINIB] | > 30 µM (inactive) | > 30 µM (inactive) | > 30 µM (inactive) | > 30 µM (inactive) |  | > 30 µM (inactive) | > 30 µM (inactive) |  | > 30 µM (inactive) | > 30 µM (inactive) | > 30 µM (inactive) |  | > 30 µM (inactive)
